In data set [1] the target is SYK kinase (Homo sapiens, UniProt P43405). Nature of the data set: SYK kinase assay (HTRF KinEASE-TK). The class given is biochemical. As to conditions: class symbols, read-out: Syk inhibition IC50. An outline of the steps:
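SYK pre-incubated with compound for 10 min at room temperature, then reacted with biotinylated TK substrate and ATP for 30 min in buffer with 5 mM MgCl2, 1 mM MnCl2 and 1 mM DTT. HTRF 665/615 ratio read after 1 h detection. IC50 from variable-slope fit.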
In general terms: Time-resolved FRET reads energy transfer from a long-lived donor to a nearby acceptor.

The target of data set [2] is T1, Ba/F3-TEL-SYK cells (Homo sapiens, UniProt P43405).
T1 construct: fused on or other part: N-terminal part of TEL (ETV6) with its oligomerising PNT/SAM domain, fused before the SYK part that carries the kinase domain; P41212 (Transcription factor ETV6)
Nature of the data set: Ba/F3-TEL-SYK cell-based assay (CellTiter-Glo proliferation). The settings on record: 72 hr, read-out: BaF3 Cell assay IC50. The method, then:
CellTiter-Glo® Luminescent Cell Viability Assay was used to determine the number of viable cells in culture based on quantitation of the ATP present, as an indicator of metabolically active cells. The assay was performed in the following steps: First, the testing compounds were dissolved in DMSO to make a stock solution. The stocks (10 mM) were then diluted to varying concentrations: […], 0.305 and 0.102 μM. An aliquot of 0.2 μl of diluted compounds were added to the 384 well assay plate. Second, added 40 μl of cell suspension with 800 Ba/F3-TEL-SYK cells into each well and incubated the plate at 37° C., 5% CO2 for 72 hr. Then, added 20 μl Cell Titer-Glo Reagent into each well of the cell culture plate. Mixed the contents for 2 min on an orbital shaker to lyse cells, and rest the plate at room temperature for 30 min. Finally, luminescence values were obtained using an Envision 2104 plate reader (PerkinElmer) and calculated the average data and Standard Deviation (SD) of DMSO and Reference (GS-9973, 1 μM) as high control and low control. To determine the IC50 value, fit the data using non-linear regression equation.

Data set [3] is described as follows: In vivo pharmacokinetic analysis, single dose, ICR mice. The settings on record: mouse, male, plasma; for AUC(0-inf) / AUC(0-t) / Cmax / Tmax / half-life: single dose; for bioavailability: PO 10 mg/kg vs IV 2 mg/kg, read-out: F % (bioavailability). As for the experimental part: This is a single-dose study in ICR mice (male, n=9/administration) with intravenous and oral administration. Compound concentrations in plasma were measured and calculated for pharmacokinetic (PK) analysis via WinNonLin 6.4.

Usually IC50 stands for the point on the concentration scale where inhibition reaches its midpoint. As a reminder, the AUC(0-inf) is total exposure, with the tail of the curve extrapolated. The low end stands for less exposure, the high end for more exposure. What is called AUC(0-t) is exposure summed from dosing to a finite time, without extrapolation to infinity. A low value points to less exposure. The term Cmax denotes the maximum level reached in the sampled fluid or tissue. As a reminder, the Tmax is the time from dosing to the highest level. In general, half-life refers to the time in which the quantity being followed falls by half. The bioavailability is dose-corrected exposure relative to a reference, in per cent. For `COc1cc(Nc2nc(-c3ccc4cn[nH]c4c3)cn3ncnc23)ccc1N1CCN(C2COC2)CC1` [I54, 6-(1H-indazol-6-yl)-N-(3-methoxy-4-(4-(oxetan-3-yl)piperazin-1-yl)phenyl)-[1,2,4]triazolo[1,5-a]pyrazin-8-amine], in data set [1], the IC50 was at most 50 nM. Further, the GI50 in data set [2] was at most 50 nM. In data set [3] (IV Administration (2 mg/kg)), the AUC(0-inf) stood at 500 ng·h/mL, the AUC(0-t) is 499 ng·h/mL, the Cmax stood at 1640 ng/mL and the time of peak concentration (Tmax) came out at 4.8 min. The compound further had a half-life in data set [3] (IV Administration (2 mg/kg)) of 39 min. In data set [3] (PO Administration (10 mg/kg)), the AUC(0-inf) turned out to be 151 ng·h/mL, the area under the curve AUC(0-t) turned out to be 145 ng·h/mL, the highest concentration (Cmax) turned out to be 268 ng/mL and the time of peak concentration (Tmax) turned out to be 15 min. Moreover, the half-life in data set [3] (PO Administration (10 mg/kg)) was 46.8 min. Moreover, the bioavailability in data set [3] was 5.81%.
With `c1nc2c(Nc3ccc(N4CCN(C5COC5)CC4)cc3)nc(-c3ccc4cc[nH]c4c3)cn2n1` [I57, 6-(1H-indol-6-yl)-N-(4-(4-(oxetan-3-yl)piperazin-1-yl)phenyl)-[1,2,4]triazolo[1,5-a]pyrazin-8-amine], the half-maximal inhibitory concentration (IC50) in data set [1] was at most 50 nM. In addition, the GI50 in data set [2] is at most 50 nM. In data set [3] (IV Administration (2 mg/kg)), the AUC(0-inf) came out at 4670 ng·h/mL, the area under the curve AUC(0-t) stood at 4670 ng·h/mL, the peak level (Cmax) was 7360 ng/mL and the time to peak (Tmax) is 4.8 min. The compound also gave a half-life in data set [3] (IV Administration (2 mg/kg)) of 43.2 min. Further, in data set [3] (PO Administration (10 mg/kg)), the AUC(0-inf) came out at 14500 ng·h/mL, the AUC(0-t) was found to be 14500 ng·h/mL, the Cmax is 14400 ng/mL and the time of peak concentration (Tmax) came to 15 min. The half-life in data set [3] (PO Administration (10 mg/kg)) is 196 min. The bioavailability in data set [3] came to 62%.
Consider `COc1cc(Nc2nc(-c3ccc4cn[nH]c4c3)cn3ncnc23)ccc1N1CCOCC1` [I1, 6-(1H-indazol-6-yl)-N-(3-methoxy-4-morpholinophenyl)-[1,2,4]triazolo[1,5-a]pyrazin-8-amine], for which the half-inhibitory concentration (IC50) in data set [1] was at most 50 nM. Also, in data set [2], the GI50 is at most 50 nM. Also, in data set [3] (IV Administration (2 mg/kg)), the total exposure AUC(0-inf) is 983 ng·h/mL, the AUC(0-t) is 980 ng·h/mL, the Cmax turned out to be 2520 ng/mL and the time of peak concentration (Tmax) came to 4.8 min. This compound had a half-life in data set [3] (IV Administration (2 mg/kg)) of 15 min. Further, in data set [3] (PO Administration (10 mg/kg)), the AUC(0-inf) came out at 448 ng·h/mL, the AUC(0-t) is 381 ng·h/mL, the Cmax worked out at 88.8 ng/mL and the Tmax turned out to be 30 min. The same compound showed a half-life in data set [3] (PO Administration (10 mg/kg)) of 54 min. Also, the bioavailability in data set [3] worked out at 7.77%.
Take `c1nc2c(Nc3ccc(N4CCOCC4)cc3)nc(-c3ccc4cc[nH]c4c3)cn2n1` [I10, 6-(1H-indol-6-yl)-N-(4-morpholinophenyl)-[1,2,4]triazolo[1,5-a]pyrazin-8-amine]: the IC50 in data set [1] was at most 50 nM. For the same compound, the GI50 in data set [2] fell in the range of 50 to 500 nM. In data set [3] (IV Administration (2 mg/kg)), the AUC(0-inf) was 11400 ng·h/mL, the exposure AUC(0-t) worked out at 11200 ng·h/mL, the Cmax was found to be 8810 ng/mL and the Tmax was found to be 4.8 min. The same compound had a half-life in data set [3] (IV Administration (2 mg/kg)) of 99 min. In addition, in data set [3] (PO Administration (10 mg/kg)), the AUC(0-inf) was determined as 28500 ng·h/mL, the AUC(0-t) was determined as 28500 ng·h/mL, the highest level (Cmax) was 2160 ng/mL and the time of peak concentration (Tmax) was 240 min. This compound gave a half-life in data set [3] (PO Administration (10 mg/kg)) of 100 min. Further, in data set [3], the bioavailability turned out to be 50.8%.
Regarding `COc1cc(Nc2nc(-c3ccc4cc[nH]c4c3)cn3ncnc23)ccc1N1CCN(C2COC2)CC1` [I58, 6-(1H-indol-6-yl)-N-(3-methoxy-4-(4-(oxetan-3-yl)piperazin-1-yl)phenyl)-[1,2,4]triazolo[1,5-a]pyrazin-8-amine], the IC50 in data set [1] was at most 50 nM. Also, the GI50 in data set [2] is at most 50 nM. Moreover, in data set [3] (IV Administration (2 mg/kg)), the area under the curve AUC(0-inf) came to 1680 ng·h/mL, the exposure AUC(0-t) was 1680 ng·h/mL, the Cmax was 5110 ng/mL and the time of peak concentration (Tmax) is 4.8 min. This compound gave a half-life in data set [3] (IV Administration (2 mg/kg)) of 42.6 min. In addition, in data set [3] (PO Administration (10 mg/kg)), the area under the curve AUC(0-inf) came out at 902 ng·h/mL, the exposure AUC(0-t) was 895 ng·h/mL, the peak level (Cmax) was 2570 ng/mL and the Tmax stood at 15 min. The same compound showed a half-life in data set [3] (PO Administration (10 mg/kg)) of 89.4 min. The bioavailability in data set [3] was 10.7%.
Consider `COc1cc(Nc2nc(-c3ccc4cn[nH]c4c3)cn3ncnc23)ccc1N1CCC(C)(O)CC1` [I22, 1-(4-((6-(1H-indazol-6-yl)-[1,2,4]triazolo[1,5-a]pyrazin-8-yl)amino)-2-methoxyphenyl)-4-methylpiperidin-4-ol], for which the IC50 in data set [1] is at most 50 nM. Moreover, the GI50 in data set [2] is at most 50 nM. For the same compound, in data set [3] (IV Administration (2 mg/kg)), the area under the curve AUC(0-inf) came out at 429 ng·h/mL, the area under the curve AUC(0-t) stood at 428 ng·h/mL, the maximum concentration (Cmax) is 1320 ng/mL and the Tmax turned out to be 4.8 min. The compound also had a half-life in data set [3] (IV Administration (2 mg/kg)) of 12.6 min. Also, in data set [3] (PO Administration (10 mg/kg)), the AUC(0-inf) amounted to 125 ng·h/mL, the AUC(0-t) is 115 ng·h/mL, the highest concentration (Cmax) was 108 ng/mL and the Tmax amounted to 15 min. Also, the half-life in data set [3] (PO Administration (10 mg/kg)) was 28.8 min. For the same compound, the bioavailability in data set [3] worked out at 5.38%.

For the origin of these results see patent US12577248B2, “Substituted [1,2,4]triazolo[1,5-a]pyrazines as spleen tyrosine kinase inhibitors” (NANJING RUIJIE PHARMA CO., LTD., priority 2020, dated 2026).
